# Like-named read-outs stand apart in the source and are kept apart here.
# What was measured:
# [1] = system: Staphylococcus aureus 3055; assay: agar-dilution MIC; type: cell-based
# Description: (§1) The agar-dilution procedure described by the International Collaborative Study (ICS) group was used to determine MIC values.
# Bacteroides fragilis 107 = assay: MIC, anaerobic bacteria; type: cell-based
# Bacteroides fragilis 9 = assay: MIC, anaerobic bacteria; type: cell-based
# [2] = system: Eubacterium aerofaciens 1235; assay: MIC, anaerobic bacteria; type: cell-based; conditions: Collinsella aerofaciens
# [3] = system: Propionibacterium acnes 79; assay: MIC, anaerobic bacteria; type: cell-based; conditions: Cutibacterium acnes
# [4] = system: Clostridium septicum 1128; assay: MIC, anaerobic bacteria; type: cell-based
# Description: as §1
# [5] = system: Bacteroides thetaiotaomicron 1438; assay: MIC, anaerobic bacteria; type: cell-based
# Description: as §1
# [6] = system: Staphylococcus aureus 3074; assay: agar-dilution MIC; type: cell-based; conditions: agar-dilution method, benzylpenicillin-resistant
# Bacteroides fragilis 103 = assay: MIC, anaerobic bacteria; type: cell-based
# [7] = system: Bacteroides vulgatis 1211; assay: MIC, anaerobic bacteria; type: cell-based
# [8] = system: Bacteroides corrodens 1874; assay: MIC, anaerobic bacteria; type: cell-based
# Bacteroides fragilis 2 = assay: MIC, anaerobic bacteria; type: cell-based
# [9] = system: Clostridium perfringens 81; assay: microbe, parasite or virus in culture; type: cell-based
# [10] = system: Bacteroides melaninogenicus 1856/28; assay: MIC, anaerobic bacteria; type: cell-based; conditions: Prevotella intermedia
# [11] = system: Peptostreptococcus intermedius 1264; assay: MIC, anaerobic bacteria; type: cell-based
# electrometric titration = type: physicochemical; conditions: 66% dimethylformamide in water
# Description: Antibiotic A-39183 factor A is a yellow, crystalline solid, having a molecular weight of 598.58, as determined by mass spectrometry, and an approximate elemental analysis as follows: 67.95% carbon, 5.20% hydrogen, and 26.79% oxygen. […] A-39183 factor A has the following specific rotation: [α]D^25 +18.9° (c 9.52, trifluoroethanol).
# Antibiotic A-39183 factor b is a red, crystalline solid having a molecular weight of 580, as determined by mass spectrometry, and an approximate elemental analysis as follows: 70.56% carbon, 4.97% hydrogen, and 24.57% oxygen. […] A-39183 factor B has the following specific rotation: [α]D^25 +576.9° (c 8.85, trifluoroethanol).
# [12] = system: Bacteroides fragilis 1936B; assay: MIC, anaerobic bacteria; type: cell-based
# [13] = system: Actinomyces israelii W855; assay: MIC, anaerobic bacteria; type: cell-based
# solubility = type: physicochemical; conditions: organic solvents
# Bacteroides fragilis 112 = assay: MIC, anaerobic bacteria; type: cell-based
# Bacteroides fragilis 108 = assay: MIC, anaerobic bacteria; type: cell-based
# [14] = system: Bacteroides fragilis 1451; assay: MIC, anaerobic bacteria; type: cell-based
# Bacteroides fragilis 113 = assay: MIC, anaerobic bacteria; type: cell-based
# [15] = system: Bacteroides vulgatis 1563; assay: MIC, anaerobic bacteria; type: cell-based
# [16] = system: Fusobacterium necrophorum 6054A; assay: MIC, anaerobic bacteria; type: cell-based
# [17] = system: Bacteroides fragilis 1470; assay: MIC, anaerobic bacteria; type: cell-based
# Bacteroides fragilis 104 = assay: MIC, anaerobic bacteria; type: cell-based
# Bacteroides fragilis 110 = assay: MIC, anaerobic bacteria; type: cell-based
# Bacteroides fragilis 62 = assay: MIC, anaerobic bacteria; type: cell-based
# [18] = system: Streptococcus faecalis X66; assay: agar-dilution MIC; type: cell-based; conditions: Enterococcus faecalis
# [19] = system: Fusobacterium symbiosum 1470; assay: MIC, anaerobic bacteria; type: cell-based
# [20] = system: Streptococcus sp. (Group D) 9960; assay: disc-plate zone of inhibition; type: cell-based; conditions: 6 mm discs, read-out: Zone Diameter
# Description: (§2) Agar plates, inoculated with the test organism, were used; 6 mm. discs (0.02 ml. capacity) were saturated from log 2 dilutions of the antibiotic solution. Disc content was 1/5 or 1/50 of the concentration of the solution used, i.e., disc content of […] 30 μg. was obtained from a solution of 1500 μg./ml. concentration.
# [21] = system: Staphylococcus aureus 3074; assay: disc-plate zone of inhibition; type: cell-based; conditions: benzylpenicillin-resistant, 6 mm discs, read-out: Zone Diameter
# Description: as §2
# [22] = system: Streptococcus pneumoniae Park I; assay: disc-plate zone of inhibition; type: cell-based; conditions: 6 mm discs, read-out: Zone Diameter
# Description: as §2
# [23] = system: Streptococcus pyogenes C203; assay: disc-plate zone of inhibition; type: cell-based; conditions: 6 mm discs, read-out: Zone Diameter
# Description: as §2
# [24] = system: Staphylococcus aureus 3130; assay: disc-plate zone of inhibition; type: cell-based; conditions: benzylpenicillin-resistant, methicillin-resistant, 6 mm discs, read-out: Zone Diameter
# Description: as §2
# [25] = system: Staphylococcus aureus 3055; assay: disc-plate zone of inhibition; type: cell-based; conditions: benzylpenicillin-susceptible, 6 mm discs, read-out: Zone Diameter
# Description: as §2
# [26] = system: Peptococcus asaccharolyticus 1302; assay: MIC, anaerobic bacteria; type: cell-based; conditions: Peptoniphilus asaccharolyticus
# [27] = system: Peptostreptococcus anaerobius 1428; assay: MIC, anaerobic bacteria; type: cell-based
# [28] = system: Bacteroides fragilis 1877; assay: MIC, anaerobic bacteria; type: cell-based
# [29] = system: Bacteroides melaninogenicus 2736; assay: MIC, anaerobic bacteria; type: cell-based
# [30] = system: Bacteroides thetaiotaomicron 1900A; assay: MIC, anaerobic bacteria; type: cell-based
# Bacteroides fragilis 106 = assay: MIC, anaerobic bacteria; type: cell-based
# Peptococcus prevoti 1281 = assay: MIC, anaerobic bacteria; type: cell-based
# Bacteroides fragilis 111 = assay: MIC, anaerobic bacteria; type: cell-based
# [31] = Bacteroides thetaiotaomicron, 1438, Bacteroides thetaiotaomicron 1438, first listing, read-out: MIC
# [32] = Eikenella corrodens, 1874, Bacteroides corrodens 1874, first listing
# [33] = Bacteroides fragilis, 1877, Bacteroides fragilis 1877, first listing
# [34] = Bacteroides fragilis, 111, Bacteroides fragilis 111, first listing
compound,measurement,setting,value
CC(=O)c1c(C)cc(O)c2c(O)c3c(O)cccc3c(-c3c4c(c(O)c5c(O)cccc35)C(=O)CC(C)(O)C4C(C)=O)c12 (centres unmarked) [A-39183 factor B],MIC,[1],0.5 µg/mL
same,MIC,Bacteroides fragilis 107,4 µg/mL
same,MIC,Bacteroides fragilis 9,4 µg/mL
same,MIC,[2],8 µg/mL
same,MIC,[3],2 µg/mL
same,MIC,[4],2 µg/mL
same,MIC,[5]; [31],16 µg/mL
same,MIC,"[5]; Bacteroides thetaiotaomicron, 1438, Bacteroides thetaiotaomicron 1438, second listing",4 µg/mL
same,MIC,[6],4 µg/mL
same,MIC,Bacteroides fragilis 103,4 µg/mL
same,MIC,[7],2 µg/mL
same,MIC,[8]; [32],1 µg/mL
same,MIC,"[8]; Eikenella corrodens, 1874, Bacteroides corrodens 1874, second listing",4 µg/mL
same,MIC,Bacteroides fragilis 2,2 µg/mL
same,MIC,[9],8 µg/mL
same,MIC,[10],> 128 µg/mL
same,MIC,[11],2 µg/mL
same,pKa,"electrometric titration; pH 4.03, 66% dimethylformamide in water, initial pH 4.03, read-out: pKa (first titratable group)",~6.68
same,pKa,"electrometric titration; pH 4.03, 66% dimethylformamide in water, initial pH 4.03, read-out: pKa (second titratable group)",~8.42
same,MIC,[12],2 µg/mL
same,MIC,[13],≤ 0.5 µg/mL
same,solubility (soluble),solubility,soluble in the same solvents as factor A
same,MIC,Bacteroides fragilis 112,4 µg/mL
same,MIC,Bacteroides fragilis 108,4 µg/mL
same,MIC,[14],4 µg/mL
same,MIC,Bacteroides fragilis 113,4 µg/mL
same,MIC,[15],8 µg/mL
same,MIC,[16],≤ 0.5 µg/mL
same,MIC,[17],4 µg/mL
same,MIC,Bacteroides fragilis 104,4 µg/mL
same,MIC,Bacteroides fragilis 110,4 µg/mL
same,MIC,Bacteroides fragilis 62,1 µg/mL
same,MIC,[18],4 µg/mL
same,MIC,[19],8 µg/mL
same,zone of inhibition at 30 µg/disc,[20]; 30 μg/disc,0 mm
same,zone of inhibition at 300 µg/disc,[20]; 300 μg/disc,9.1 mm
same,zone of inhibition at 30 µg/disc,[21]; 30 μg/disc,14.8 mm
same,zone of inhibition at 300 µg/disc,[21]; 300 μg/disc,15.8 mm
same,zone of inhibition at 30 µg/disc,[22]; 30 μg/disc,0 mm
same,zone of inhibition at 300 µg/disc,[22]; 300 μg/disc,9.1 mm
same,zone of inhibition at 30 µg/disc,[23]; 30 μg/disc,8 mm
same,zone of inhibition at 300 µg/disc,[23]; 300 μg/disc,10 mm
same,zone of inhibition at 30 µg/disc,[24]; 30 μg/disc,13.4 mm
same,zone of inhibition at 300 µg/disc,[24]; 300 μg/disc,14 mm
same,zone of inhibition at 30 µg/disc,[25]; 30 μg/disc,0 mm
same,zone of inhibition at 300 µg/disc,[25]; 300 μg/disc,0 mm
same,MIC,[26],32 µg/mL
same,MIC,[27],8 µg/mL
same,MIC,[28]; [33],1 µg/mL
same,MIC,"[28]; Bacteroides fragilis, 1877, Bacteroides fragilis 1877, second listing",4 µg/mL
same,MIC,[29],4 µg/mL
same,MIC,[30],16 µg/mL
same,MIC,Bacteroides fragilis 106,4 µg/mL
same,MIC,Peptococcus prevoti 1281,8 µg/mL
same,MIC,Bacteroides fragilis 111; [34],≤ 0.5 µg/mL
same,MIC,"Bacteroides fragilis 111; Bacteroides fragilis, 111, Bacteroides fragilis 111, second listing",4 µg/mL
CC(=O)C1c2c(c(O)c3c(O)cccc3c2-c2c3c(c(O)c4c(O)cccc24)C(=O)CC(C)(O)C3C(C)=O)C(=O)CC1(C)O (centres unmarked) [A-39183 factor A],MIC,"[1]; agar-dilution method, benzylpenicillin-susceptible, read-out: MIC",32 µg/mL
same,MIC,[2],32 µg/mL
same,MIC,[3],32 µg/mL
same,MIC,[4],16 µg/mL
same,MIC,[5]; [31],16 µg/mL
same,MIC,[7],32 µg/mL
same,MIC,[8]; [32],32 µg/mL
same,MIC,[9],32 µg/mL
same,MIC,[10],> 128 µg/mL
same,MIC,[11],32 µg/mL
same,pKa,"electrometric titration; pH 4.81, 66% dimethylformamide in water, initial pH 4.81, read-out: pKa (first titratable group)",~6.75
same,pKa,"electrometric titration; pH 4.81, 66% dimethylformamide in water, initial pH 4.81, read-out: pKa (second titratable group)",~8.43
same,MIC,[12],32 µg/mL
same,MIC,[13],≤ 0.5 µg/mL
same,solubility (soluble),solubility,"soluble in acetone, ethyl acetate, chloroform, dimethylformamide, dimethyl sulfoxide, and trifluoroethanol"
same,MIC,[16],16 µg/mL
same,MIC,"[18]; agar-dilution method, read-out: MIC",32 µg/mL
same,MIC,[19],64 µg/mL
same,MIC,[26],64 µg/mL
same,MIC,[27],64 µg/mL
same,MIC,[28]; [33],32 µg/mL
same,MIC,[29],16 µg/mL
same,MIC,Peptococcus prevoti 1281,32 µg/mL
same,MIC,Bacteroides fragilis 111; [34],32 µg/mL

# — patent US4452741A, “A-39183 Antibiotics and process for production thereof” (Eli Lilly and Company, priority 1983, dated 1984)
